Molecular target: T1, human TGR5 (Homo sapiens, UniProt Q8TDU6)
T1 construct: expressed in transfected cells; host or cells: HEK-293 cells, stably transfected (pcDNA 3.1, Fugene6, geneticin selection)
T1 sequence (Q8TDU6 1-330): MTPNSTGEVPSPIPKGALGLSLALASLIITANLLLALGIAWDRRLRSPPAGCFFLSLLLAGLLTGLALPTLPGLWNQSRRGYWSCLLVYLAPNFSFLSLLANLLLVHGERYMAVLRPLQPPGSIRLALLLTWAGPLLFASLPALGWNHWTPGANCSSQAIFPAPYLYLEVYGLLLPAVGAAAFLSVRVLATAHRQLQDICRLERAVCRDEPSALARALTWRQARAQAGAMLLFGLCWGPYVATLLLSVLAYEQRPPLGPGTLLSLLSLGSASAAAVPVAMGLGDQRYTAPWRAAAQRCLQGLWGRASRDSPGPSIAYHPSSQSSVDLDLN
Assay: cAMP production assay in HEK293-TGR5 cells
Type: cell-based
Conditions: HEK293 cells stably expressing human TGR5; 30 minutes stimulation; LANCE cAMP TR-FRET; read-out: cAMP Production in 293-TGR5 Cells EC50
Protocol: HEK293 cells stably expressing TGR5 (HEK293-TGR5) were established by stably transfecting HEK-293 cells with an expression vector (pcDNA 3.1, Invetrogen) inserted with human TGR5 cDNA using Fugene6 (Roche, Indianapolis, Ind.) according to conventional methods. Cells were grown in DMEM (invitrogen, Carlsbad, Calif.) supplemented with 10% FBS, 1% penicillin/streptomycin under geneticin selection. The presence of TGR5 transcripts in these cells was confirmed using branched DNA (bDNA, Genospectra, Inc., Fremont Calif.) following the manufacturer's protocol and using specific probes for human TGR5. cAMP production assay was performed in high throughput 1536 well format using LANCE cAMP detection kit (Perkin Elmer Inc., Boston, Mass.) according to the manufacturer's protocol. Briefly, HEK293-TGR5 cells were harvested using non-enzymatic cell dissociation buffer (Invitrogen, Carlsbad, Calif.) and suspended in DMEM supplemented with 0.1% FBS at a density of 800,000 cells/ml. Alexa antibody was added to the cell suspension, and 4 ul of the mixture was dispensed in white opaque tissue culture treated Greiner 1536 well plates (USA Scientific, Inc., Ocala, Fla.). After an overnight incubation at 37C in an atmosphere of 10% CO2 and 95% humidity, 1 ul of 5 mM IBMX (Sigma, St. Louis, Mo.) solution in DMEM was dispensed for a final concentration of 1 mM. Cells were then stimulated with test compounds for 30 minutes, after which time 5 ul of detection reagent was added and incubated for 1-7 hrs at room temperature. TR-FRET signal was detected using the Viewlux (Perkin Elmer Inc., Boston Mass.). EC50 values were determined using Graph Pad Prizm analysis (GraphPad Software, Inc).

Compound	EC50 [µM]
COc1ccc2cc(NCc3ccc(C(F)(F)F)cc3)c(-c3ccsc3)nc2c1 [Example 115, 7-Methoxy-2-(thiophen-3-yl)-N-(4-(trifluoromethyl)benzyl)quinolin-3-amine]	> 10
COc1ccc2cc(CNCc3ccc(C(F)(F)F)cc3)c(-c3cnn(C)c3)nc2c1 [Example 20, 1-(7-Methoxy-2-(1-methyl-1H-pyrazol-4-yl)quinolin-3-yl)-N-(4-(trifluoromethyl)benzyl)methanamine]	< 10
Oc1ccc2nc(-c3ccsc3)c(CNCc3ccc(C(F)(F)F)cc3)cc2c1 [Example 111, 2-(Thiophen-3-yl)-3-((4-(trifluoromethyl)benzylamino)methyl)quinolin-6-ol]	> 10
COc1ccc2cc(CNCc3ccc(C(F)(F)F)cc3)c(Sc3ccncc3)nc2c1 [Example 94, 1-(7-Methoxy-2-(pyridin-4-ylthio)quinolin-3-yl)-N-(4-(trifluoromethyl)benzyl)methanamine]	> 10
COc1ccc2cc(CNC(C)Cc3ccc(Br)cc3)c(-c3ccsc3)nc2c1 (stereo not shown) [Example 145, 1-(4-Bromophenyl)-N-((7-methoxy-2-(thiophen-3-yl)quinolin-3-yl)methyl)propan-2-amine]	> 10
COc1cc2cc(CNCCc3ccc(Br)cc3)c(-c3ccsc3)nc2cc1C [Example 131, 2-(4-Bromophenyl)-N-((6-methoxy-7-methyl-2-(thiophen-3-yl)quinolin-3-yl)methyl)ethanamine]	< 10
COc1ccc2nc(-c3ccsc3)c(CNCc3ccc(C(F)(F)F)cc3)cc2c1 [Example 26, 1-(6-Methoxy-2-(thiophen-3-yl)quinolin-3-yl)-N-(4-(trifluoromethyl)benzyl)methanamine]	> 10
COc1ccc2cc(CNCc3ccc(C(F)(F)F)cc3)c(-c3cscc3C)nc2c1 [Example 55, 1-(7-Methoxy-2-(4-methylthiophen-3-yl)quinolin-3-yl)-N-(4-(trifluoromethyl)benzyl)methanamine]	> 10
COc1ccc2cc(CNCc3ccc(Br)cc3)c(-c3ccncc3)nc2c1 [Example 52, N-(4-Bromobenzyl)-1-(7-methoxy-2-(pyridin-4-yl)quinolin-3-yl)methanamine]	< 10
COc1ccc2cc(CN[C@@H](C)c3ccc(Br)cc3)c(-c3ccsc3)nc2c1 [Example 133, (S)-1-(4-Bromophenyl)-N-((7-methoxy-2-(thiophen-3-yl)quinolin-3-yl)methyl)ethanamine]	< 10
Oc1ccc2nc(-c3ccsc3)c(CNCCc3ccc(Cl)cc3)cc2c1 [Example 105, 3-((4-Chlorophenethylamino)methyl)-2-(thiophen-3-yl)quinolin-6-ol]	< 10
COc1ccc2cc(CNCc3ccc(C(F)(F)F)cc3)c(-c3ncco3)nc2c1 [Example 37, 1-(7-Methoxy-2-(oxazol-2-yl)quinolin-3-yl)-N-(4-(trifluoromethyl)benzyl)methanamine]	> 10
FC(F)(F)Oc1ccc2cc(CNCc3ccc(C(F)(F)F)cc3)c(-c3cccnc3)nc2c1 [Example 15, 1-(2-(Pyridin-3-yl)-7-(trifluoromethoxy)quinolin-3-yl)-N-(4-(trifluoromethyl)benzyl)-methanamine]	< 10
CCOc1ccc2cc(CNCc3ccc(C(F)(F)F)cc3)c(-c3ccsc3)nc2c1 [Example 51, 1-(7-Ethoxy-2-(thiophen-3-yl)quinolin-3-yl)-N-(4-(trifluoromethyl)benzyl)methanamine]	< 10
COc1ccc2cc(CNCc3cnc(C)cn3)c(-c3ccsc3)nc2c1 [Example 71, 1-(7-Methoxy-2-(thiophen-3-yl)quinolin-3-yl)-N-((5-methylpyrazin-2-yl)methyl)methanamine]	< 10
COc1ccc2cc(CNc3ccc(Cl)cc3)c(-c3ccsc3)nc2c1 [Example 69, 4-Chloro-N-((7-methoxy-2-(thiophen-3-yl)quinolin-3-yl)methyl)aniline]	< 10
COc1ccc2cc(CNCc3ccc(C(F)(F)F)cc3)c(-c3cccnc3)nc2c1 [Example 6, 1-(7-Methoxy-2-(pyridin-3-yl)quinolin-3-yl)-N-(4-(trifluoromethyl)benzyl)methanamine]	< 10

Compound	EC50 [µM]
COc1ccc2cc(CNCCCc3ccccc3)c(-c3ccncc3)nc2c1 [Example 81, N-((7-Methoxy-2-(pyridin-4-yl)quinolin-3-yl)methyl)-3-phenylpropan-1-amine]	< 10
COc1ccc2cc(NCCc3ccc(Br)cc3)c(-c3ccsc3)nc2c1 [Example 116, N-(4-Bromophenethyl)-7-methoxy-2-(thiophen-3-yl)quinolin-3-amine]	< 10
COc1ccc2cc(CNCCc3ccc(Cl)cc3)c(-c3cnn(C)c3)nc2c1 [Example 21, 2-(4-Chlorophenyl)-N-((7-methoxy-2-(1-methyl-1H-pyrazol-4-yl)quinolin-3-yl)methyl)ethanamine]	< 10
COc1ccc2cc(CNCc3ccc(C(F)(F)F)cc3)c(-c3nccs3)nc2c1 [Example 30, 1-(7-methoxy-2-(thiazol-2-yl)quinolin-3-yl)-N-(4-(trifluoromethyl)benzyl)methanamine]	> 10
Cc1cccc2cc(CNCc3ccc(C(F)(F)F)cc3)c(-c3ccsc3)nc12 [Example 5, 1-(8-Methyl-2-(thiophen-3-yl)quinolin-3-yl)-N-(4-(trifluoromethyl)benzyl)methanamine]	< 10
COc1ccc2cc(CNCc3ccc(F)c(Cl)c3)c(-c3ccncc3)nc2c1 [Example 92, N-(3-Chloro-4-fluorobenzyl)-1-(7-methoxy-2-(pyridin-4-yl)quinolin-3-yl)methanamine]	< 10
CSc1ccc2cc(CNCCc3ccc(Br)cc3)c(-c3ccsc3)nc2c1 [Example 39, 2-(4-Bromophenyl)-N-((7-(methylthio)-2-(thiophen-3-yl)quinolin-3-yl)methyl)ethanamine]	< 10
CNC(=O)c1ccc2cc(CNCCc3ccc(Br)cc3)c(-c3ccsc3)nc2c1 [Example 140, 3-((4-Bromophenethylamino)methyl)-N-methyl-2-(thiophen-3-yl)quinoline-7-carboxamide]	< 10
COc1ccc2cc(CNCc3ccc(C(C)(C)C)cc3)c(-c3ccncc3)nc2c1 [Example 75, N-(4-tert-Butylbenzyl)-1-(7-methoxy-2-(pyridin-4-yl)quinolin-3-yl)methanamine]	< 10
Oc1ccc2cc(CNCCc3ccc(Br)cc3)c(-c3ccco3)nc2c1 [Example 103, 3-((4-Bromophenethylamino)methyl)-2-(furan-2-yl)quinolin-7-ol]	> 10
COc1ccc2cc(CNCc3ccco3)c(-c3ccsc3)nc2c1 [Example 78, 1-(Furan-2-yl)-N-((7-methoxy-2-(thiophen-3-yl)quinolin-3-yl)methyl)methanamine]	< 10
COc1ccc2cc(CNCc3ccc(C(F)(F)F)cc3)c(-c3ccccc3)nc2c1 [Example 48, 1-(7-Methoxy-2-phenylquinolin-3-yl)-N-(4-(trifluoromethyl)benzyl)methanamine]	< 10
COc1ccc2cc(CNCc3ccc(C(F)(F)F)cc3)c(Oc3cccnc3)nc2c1 [Example 83, 1-(7-methoxy-2-(pyridin-3-yloxy)quinolin-3-yl)-N-(4-(trifluoromethyl)benzyl)methanamine]	< 10
CN(C)c1ccc2cc(CNCc3ccc(C(F)(F)F)cc3)c(-c3ccsc3)nc2c1 [Example 88, N,N-Dimethyl-2-(thiophen-3-yl)-3-((4-(trifluoromethyl)benzylamino)methyl)quinolin-7-amine]	> 10
COc1cc(OC)c2cc(CNCCc3ccc(Br)cc3)c(-c3ccsc3)nc2c1 [Example 54, 2-(4-Bromophenyl)-N-((5,7-dimethoxy-2-(thiophen-3-yl)quinolin-3-yl)methyl)ethanamine]	< 10
COc1ccc2cc(CN[C@H](C)c3ccc(Br)cc3)c(-c3ccsc3)nc2c1 [Example 130, (R)-1-(4-Bromophenyl)-N-((7-methoxy-2-(thiophen-3-yl)quinolin-3-yl)methyl)ethanamine]	< 10
FC(F)(F)Oc1ccc2cc(CNCc3ccc(C(F)(F)F)cc3)c(-c3ccsc3)nc2c1 [Example 12, 1-(2-(Thiophen-3-yl)-7-(trifluoromethoxy)quinolin-3-yl)-N-(4-(trifluoromethyl)benzyl)methanamine]	< 10
